Reference: ChEMBL document CHEMBL4699392, “Application of triazoles as bioisosteres and linkers in the development of microtubule targeting agents” (RSC Med Chem, 2020)
Values belong to the molecule of their own block, whether it stands above or below them.

Key:
[1] = Cytotoxicity against Ovarian cancer cell line (unknown origin) assessed as reduction in cell viability incubated for 72 hrs by MTT assay; assay type: functional
[2] = Cytotoxicity against Leukemia cell line (unknown origin) assessed as reduction in cell viability incubated for 72 hrs by MTT assay; assay type: functional
[3] = Cytotoxicity against Prostate tumor cell line (unknown origin) assessed as reduction in cell viability incubated for 72 hrs by MTT assay; assay type: functional
[4] = Cytotoxicity against Cervical carcinoma cell line (unknown origin) assessed as reduction in cell viability incubated for 72 hrs by MTT assay; assay type: functional
[5] = Cytotoxicity against Breast cancer cells (unknown origin) assessed as reduction in cell viability incubated for 72 hrs by MTT assay; assay type: functional, cell-based; conditions: Breast cancer cell line
[6] = tested on: A549; assay: Cytotoxicity against human A549 cells; assay type: functional, cell-based
[7] = tested on: SGC-7901; assay: Cytotoxicity against human SGC-7901 cells; assay type: functional, cell-based
[8] = tested on: HT-1080; assay: Cytotoxicity against human HT-1080 cells; assay type: functional, cell-based
[9] = tested on: A549; assay: Cytotoxicity against human A549 cells assessed as reduction in cell viability incubated for 24 hrs by MTT assay; assay type: functional, cell-based; conditions: A549, 24 h
[10] = tested on: HT-1080; assay: Cytotoxicity against human HT-1080 cells assessed as reduction in cell viability incubated for 24 hrs by MTT assay; assay type: functional, cell-based; conditions: HT-1080, 24 h
[11] = tested on: SGC-7901; assay: Cytotoxicity against human SGC-7901 cells assessed as reduction in cell viability incubated for 24 hrs by MTT assay; assay type: functional, cell-based; conditions: SGC-7901, 24 h
[12] = molecular target: Tubulin; assay: Inhibition of tubulin polymerization (unknown origin) measured for every 1 min interval for 90 mins by fluorescence based assay; assay type: protein-complex assay, Homo sapiens
[13] = tested on: B16; assay: Cytotoxicity against mouse B16 cells assessed as reduction in cell viability incubated for 72 hrs by MTT assay; assay type: functional, cell-based; conditions: B16, 72 h
[14] = molecular target: Tubulin; assay: Inhibition of tubulin polymerization (unknown origin) incubated for 1 hr by fluorescence based assay; assay type: protein-complex assay, Homo sapiens
[15] = tested on: HT-29; assay: Cytotoxicity against human HT-29 cells assessed as reduction in cell viability incubated for 24 hrs by MTT assay; assay type: functional, cell-based; conditions: HT-29, 24 h
[16] = tested on: MCF7; assay: Cytotoxicity against human MCF7 cells assessed as reduction in cell viability incubated for 24 hrs by MTT assay; assay type: functional, cell-based; conditions: MCF7, 24 h
[17] = tested on: BJAB; assay: Cytotoxicity against human BJAB cells assessed as reduction in cell viability incubated for 24 hrs by CASY cell counter method; assay type: functional, cell-based
[18] = organism: Sus scrofa; assay: Displacement of fluorescein-colchicine from pig brain tubulin incubated for 1 hr by fluorescence based gel exclusion assay; assay type: tissue-based; conditions: concentration not given here
[19] = tested on: BJAB; assay: Cytotoxicity against human BJAB cells; assay type: functional, cell-based
[20] = tested on: HeLa; assay: Cytotoxicity against human HeLa cells assessed as reduction in cell viability incubated for 48 hrs by MTT assay; assay type: functional, cell-based
[21] = tested on: A549; assay: Cytotoxicity against human A549 cells assessed as reduction in cell viability incubated for 48 hrs by MTT assay; assay type: functional, cell-based; conditions: A549, 48 h
[22] = Inhibition of bovine brain tubulin polymerization by spectrometric analysis; assay type: tissue-based, Bos taurus

SMILES: COc1cc(-c2nncn2-c2ccc3c(ccn3C)c2)cc(OC)c1OC
IC50 [1]: 2.1 nM
IC50 [2]: 2.1 nM
IC50 [3]: 2.1 nM
IC50 [4]: 2.1 nM
IC50 [5]: 2.1 nM

SMILES: COc1cc(/C(=N/O)c2cnn(-c3ccccc3)n2)cc(OC)c1OC
IC50 [6]: 120 nM
IC50 [7]: 120 nM
IC50 [8]: 120 nM

IC50 [12]: 1600 nM
SMILES: COc1cccc(-c2nnc3n2N=C(c2ccc(OC)c(N)c2)CS3)c1
IC50 [9]: 11 nM
IC50 [10]: 11 nM
IC50 [11]: 11 nM

SMILES: COc1ccc(/C=C\c2cc(OC)c(OC)c(OC)c2)cc1O [COMBRETASTATIN A4]
IC50 [13]: 56000 nM

IC50 [14]: 170 nM
SMILES: COc1cc(Cc2nnc(S)n2/N=C\c2cccc(Cl)c2Cl)cc(OC)c1OC
IC50 [9]: 9710 nM
IC50 [10]: 12500 nM
IC50 [15]: 4250 nM
IC50 [16]: 3330 nM

IC50 [14]: 1840 nM
SMILES: O=C(c1cn(Cc2cccc(Oc3ccccc3)c2)nn1)c1cccnc1Nc1ccc(F)cc1

inhibition [18]: > 80%
SMILES: CCCCCCCCCCCC(=O)OCc1cn(C2CCc3cc(OC)c(OC)c(OC)c3-c3ccc(OC)c(=O)cc32)nn1 (centres undefined)
IC50 [17]: 10 nM

SMILES: CCCCCCCCCCCCCCCCCC(=O)OCc1cn(C2CCc3cc(OC)c(OC)c(OC)c3-c3ccc(OC)c(=O)cc32)nn1 (centres undefined)
IC50 [19]: 4 nM

IC50 [14]: 2040 nM
SMILES: COc1cc(Nc2ncccc2NC(=O)c2cn(Cc3cccc(Oc4ccccc4)c3)nn2)cc(OC)c1
IC50 [20]: 1330 nM
IC50 [21]: 1020 nM

IC50 [22]: 660 nM
SMILES: COc1cc(C(=O)n2nc(-c3ccc(C)cc3)nc2N)cc(OC)c1OC

SMILES: CCCCCCCC/C=C\CCCCCCCC(=O)OCc1cn(C2CCc3cc(OC)c(OC)c(OC)c3-c3ccc(OC)c(=O)cc32)nn1 (centres undefined)
IC50 [19]: 6 nM

SMILES: COc1ccc(S(=O)(=O)Nc2cccnc2Nc2ccc(O)cc2)cc1 [ABT-751]
IC50 [20]: 2180 nM
IC50 [21]: 1620 nM
